In US8119681B2, “2-[1-phenyl-5-hydroxy or methoxy-4alpha-methyl-hexahydrocyclopenta [ƒ]indazole-5-YL]ethyl phenyl derivatives as glucocorticoid receptor ligands” (Merck Sharp & Dohme Corp., priority 2006, dated 2012):
pKi: −log10 of the molar value.

Target: T1, glucocorticoid receptor (GR) (Homo sapiens, UniProt P04150)
T1 construct: endogenous in cells; host or cells: HeLa (ATCC) cell lysate supernatant
T1 sequence (P04150 1-777): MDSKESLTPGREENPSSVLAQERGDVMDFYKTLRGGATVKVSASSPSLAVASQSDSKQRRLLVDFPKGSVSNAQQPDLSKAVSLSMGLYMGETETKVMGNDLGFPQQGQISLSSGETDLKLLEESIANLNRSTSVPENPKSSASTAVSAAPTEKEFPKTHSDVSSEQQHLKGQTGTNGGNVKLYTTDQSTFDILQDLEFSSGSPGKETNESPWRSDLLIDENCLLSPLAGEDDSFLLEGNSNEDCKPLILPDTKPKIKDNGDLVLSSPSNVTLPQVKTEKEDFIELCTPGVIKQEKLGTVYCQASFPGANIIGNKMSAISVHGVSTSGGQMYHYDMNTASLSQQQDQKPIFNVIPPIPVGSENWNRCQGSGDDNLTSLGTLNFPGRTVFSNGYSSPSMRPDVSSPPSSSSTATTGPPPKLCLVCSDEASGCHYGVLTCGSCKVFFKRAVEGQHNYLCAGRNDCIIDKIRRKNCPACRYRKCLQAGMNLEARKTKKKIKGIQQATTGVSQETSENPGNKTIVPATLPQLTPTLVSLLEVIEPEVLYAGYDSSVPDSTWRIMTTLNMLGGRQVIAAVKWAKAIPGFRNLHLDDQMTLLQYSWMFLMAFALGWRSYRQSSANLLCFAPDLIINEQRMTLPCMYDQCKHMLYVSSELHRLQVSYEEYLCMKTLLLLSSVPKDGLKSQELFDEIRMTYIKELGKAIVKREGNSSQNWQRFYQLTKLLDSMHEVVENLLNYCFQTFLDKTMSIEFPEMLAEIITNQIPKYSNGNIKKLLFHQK
Assay: Ligand binding assay (GR BIND), 3H-dexamethasone displacement, HeLa cell lysate
Settings: Table 1; HeLa cell lysate, 3H-DEX
Summary of the method: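 HeLa cell lysate supernatant in TEGM (pH 7.2, molybdate) incubated overnight at 4 °C with 3H-dexamethasone trace (6 nM stock) and serially diluted compound, 2% EtOH final. Bound receptor captured on hydroxylapatite, filtered and counted by scintillation; IC50 calculated with dexamethasone as reference.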

Row | pKi | SMILES
1 | 8.76 | C[C@]12Cc3cnn(-c4ccc(F)cc4)c3C=C1CC[C@@]2(O)CCc1cccc(F)c1[C@H](N)C(F)(F)F [Example 151, (4αS,5R)-5-(2-{2-[(1S)-1-amino-2,2,2-trifluoroethyl]-3-fluorophenyl}ethyl)-1-(4-fluorophenyl)-4α-methyl-1,4,4α,5,6,7-hexahydrocyclopenta[f]indazol-5-ol]
2 | 8.59 | C[C@]12Cc3cnn(-c4ccc(F)cc4)c3C=C1CC[C@@]2(O)CCc1cccc(F)c1[C@@H](N)C(F)(F)F [Example 152, (4αS,5R)-5-(2-{2-[(1R)-1-amino-2,2,2-trifluoroethyl]-3-fluorophenyl}ethyl)-1-(4-fluorophenyl)-4α-methyl-1,4,4α,5,6,7-hexahydrocyclopenta[f]indazol-5-ol]
3 | 8.54 | C[C@]12Cc3cnn(-c4ccc(F)cc4)c3C=C1CC[C@@]2(O)CCc1ccccc1C(=O)N1CC(=O)C1 [Example 156, 1-(2-{2-[(4αS,5R)-1-(4-fluorophenyl)-5-hydroxy-4α-methyl-1,4,4α,5,6,7-hexahydrocyclopenta[f]indazol-5-yl]ethyl}benzoyl)azetidin-3-one]
4 | 8.82 | CC(=O)Cc1ccccc1CC[C@]1(O)CCC2=Cc3c(cnn3-c3ccc(F)cc3)C[C@@]21C [Example 157, 1-(2-{2-[(4αS,5R)-1-(4-fluorophenyl)-5-hydroxy-4α-methyl-1,4,4α,5,6,7-hexahydrocyclopenta[f]indazol-5-yl]ethyl}phenyl)acetone]
5 | 8.53 | C[C@]12Cc3cnn(-c4ccc(F)cc4)c3C=C1CC[C@@]2(O)CCc1ccc(F)cc1C(N)=O [Example 159, 5-fluoro-2-{2-[(4αS,5R)-1-(4-fluorophenyl)-5-hydroxy-4α-methyl-1,4,4α,5,6,7-hexahydrocyclopenta[f]indazol-5-yl]ethyl}benzamide]
6 | 9.77 | C[C@]12Cc3cnn(-c4ccc(F)cc4)c3C=C1CC[C@@]2(O)CCc1ccc(F)cc1C#N [Example 163, 5-fluoro-2-{2-[(4αS,5R)-1-(4-fluorophenyl)-5-hydroxy-4α-methyl-1,4,4α,5,6,7-hexahydrocyclopenta[f]indazol-5-yl]ethyl}benzonitrile]
7 | 8.67 | C[C@]12Cc3cnn(-c4ccc(F)c(F)c4)c3C=C1CC[C@@]2(O)CCc1cccc(F)c1C(N)=O [Example 168, 2-{2-[(4α,5R)-1-(3,4-difluorophenyl)-5-hydroxy-4α-methyl-1,4,4α,5,6,7-hexahydrocyclopenta[f]indazol-5-yl]ethyl}-6-fluorobenzamide]
8 | 8.67 | C[C@]12Cc3cnn(-c4ccc(F)cc4)c3C=C1CC[C@@]2(O)CCc1ccc(Cl)cc1C(N)=O [Example 170, 5-chloro-2-{2-[(4αS,5R)-1-(4-fluorophenyl)-5-hydroxy-4α-methyl-1,4,4α,5,6,7-hexahydrocyclopenta[f]indazol-5-yl]ethyl}benzamide]
9 | 8.18 | C[C@]12Cc3cnn(-c4ccc(F)c(F)c4)c3C=C1CC[C@@]2(O)CCc1ccccc1C(N)=O [Example 172, 2-{2-[(4αS,5R)-1-(3,4-difluorophenyl)-5-hydroxy-4α-methyl-1,4,4α,5,6,7-hexahydrocyclopenta[f]indazol-5-yl]ethyl}benzamide]
10 | 8.32 | Cc1ccc(C(N)=O)c(CC[C@]2(O)CCC3=Cc4c(cnn4-c4ccc(F)cc4)C[C@@]32C)c1 [Example 174, 2-{2-[(4αS,5R)-1-(4-fluorophenyl)-5-hydroxy-4α-methyl-1,4,4α,5,6,7-hexahydrocyclopenta[f]indazol-5-yl]ethyl}-4-methylbenzamide]
11 | 8.71 | C[C@]12Cc3cnn(-c4ccc(Cl)cc4)c3C=C1CC[C@@]2(O)CCc1cccc(F)c1C(N)=O [Example 185, 2-{2-[(4αS,5R)-1-(4-chlorophenyl)-5-hydroxy-4α-methyl-1,4,4α,5,6,7-hexahydrocyclopenta[f]indazol-5-yl]ethyl}-6-fluorobenzamide]
12 | 8.81 | COc1cccc(CC[C@]2(O)CCC3=Cc4c(cnn4-c4ccc(F)cc4)C[C@@]32C)c1C(N)=O [Example 189, 2-{2-[(4αS,5R)-1-(4-fluorophenyl)-5-hydroxy-4α-methyl-1,4,4α,5,6,7-hexahydrocyclopenta[f]indazol-5-yl]ethyl}-6-methoxybenzamide]
13 | 8.60 | Cc1cccc(CC[C@]2(O)CCC3=Cc4c(cnn4-c4cccc(F)c4)C[C@@]32C)c1C(N)=O [Example 191, 2-{2-[(4αS,5R)-1-(3-fluorophenyl)-5-hydroxy-4α-methyl-1,4,4α,5,6,7-hexahydrocyclopenta[f]indazol-5-yl]ethyl}-6-methylbenzamide]
14 | 8.83 | C[C@]12Cc3cnn(-c4ccc(F)cc4)c3C=C1CC[C@@]2(O)CCc1cccc(F)c1CC(N)=O [Example 194, 2-(2-fluoro-6-{2-[(4αS,5R)-1-(4-fluorophenyl)-5-hydroxy-4α-methyl-1,4,4α,5,6,7-hexahydrocyclopenta[f]indazol-5-yl]ethyl}phenyl)acetamide]
15 | 8.85 | C[C@]12Cc3cnn(-c4ccc(F)cc4)c3C=C1CC[C@@]2(O)CCc1cccc(Cl)c1CC(N)=O [Example 197, 2-(2-chloro-6-{2-[(4αS,5R)-1-(4-fluorophenyl)-5-hydroxy-4α-methyl-1,4,4α,5,6,7-hexahydrocyclopenta[f]indazol-5-yl]ethyl}phenyl)acetamide]
16 | 8.34 | CCC(O)(C(N)=O)c1ccccc1CC[C@]1(O)CCC2=Cc3c(cnn3-c3ccc(F)cc3)C[C@@]21C (stereo partly drawn) [Example 199, 2-(2-{2-[(4αS,5R)-1-(4-fluorophenyl)-5-hydroxy-4α-methyl-1,4,4α,5,6,7-hexahydrocyclopenta[f]indazol-5-yl]ethyl}phenyl)-2-hydroxybutanamide]
17 | 8.25 | CC(C)C(O)(C(N)=O)c1ccccc1CC[C@]1(O)CCC2=Cc3c(cnn3-c3ccc(F)cc3)C[C@@]21C (stereo partly drawn) [Example 201, 2-(2-{2-[(4αS,5R)-1-(4-fluorophenyl)-5-hydroxy-4α-methyl-1,4,4α,5,6,7-hexahydrocyclopenta[f]indazol-5-yl]ethyl}phenyl)-2-hydroxy-3-methylbutanamide]

Row | SMILES | pKi
18 | C[C@]12Cc3cnn(-c4ccc(F)cc4)c3C=C1CC[C@@]2(O)/C=C/c1ccccc1S(N)(=O)=O [Example 160, 2-{(E)-2-[(4αS,5R)-1-(4-fluorophenyl)-5-hydroxy-4α-methyl-1,4,4α,5,6,7-hexahydrocyclopenta[f]indazol-5-yl]vinyl}benzenesulfonamide] | 9.03
